Laboratory results: patent publication US20200216416A1, “QUINOLINE COMPOUNDS AS INHIBITORS OF TAM AND MET KINASES” (Array BioPharma Inc., priority 2019, published 2020)

Columns and labels:
[1] = target: T1, His-tagged recombinant human AXL cytoplasmic domain (Homo sapiens, UniProt P30530); assay: AXL Enzyme Assay (LanthaScreen Eu Kinase Binding); conditions: averaged IC50; 60-minute incubation at 22° C.; TR-FRET
T1 construct: His-tagged recombinant human AXL cytoplasmic domain
T1 sequence (P30530 473-894 limits assumed): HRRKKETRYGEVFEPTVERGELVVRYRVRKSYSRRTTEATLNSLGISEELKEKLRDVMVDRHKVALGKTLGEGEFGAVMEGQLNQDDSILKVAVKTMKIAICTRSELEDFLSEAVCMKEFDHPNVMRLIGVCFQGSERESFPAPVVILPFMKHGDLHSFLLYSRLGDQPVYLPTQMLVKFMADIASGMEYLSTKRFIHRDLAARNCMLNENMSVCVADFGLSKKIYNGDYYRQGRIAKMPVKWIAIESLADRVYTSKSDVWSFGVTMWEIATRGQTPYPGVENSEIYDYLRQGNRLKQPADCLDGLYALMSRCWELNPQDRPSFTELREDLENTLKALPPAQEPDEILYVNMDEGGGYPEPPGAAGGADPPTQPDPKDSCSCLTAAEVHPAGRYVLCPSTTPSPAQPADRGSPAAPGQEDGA
Procedure: (§1) Compounds disclosed herein were screened for their ability to inhibit AXL kinase using Invitrogen's LanthaScreen™Eu Kinase Binding technology. His-tagged recombinant human AXL cytoplasmic domain was incubated with 20 nM Alexa-Fluor® Tracer 236 (PR9078A), 2 nM biotinylated anti-His (Cat. No. M4408), and 2 nM europium-labeled Streptavidin (Cat. No. PV5899) along with test compound in a buffer consisting of 25 mM HEPES, pH 7.4, 10 mM MgCl2, 0.01% Triton X-100, and 2% DMSO. Compounds were typically prepared in a threefold serial dilution in DMSO and added to the assay to give the appropriate final concentration. After a 60-minute incubation at 22° C., the reaction was measured using a PerkinElmer EnVision multimode plate reader via TR-FRET dual wavelength detection, and the percent of control (POC) was calculated using a ratiometric emission factor. […] The POC values are fit to a 4 parameter logistic curve and the IC50 value is point where the curve crosses 50 POC.

[2] = target: T2, His-tagged recombinant human MER cytoplasmic domain (Homo sapiens, UniProt Q12866); assay: MER Enzyme Assay (LanthaScreen Eu Kinase Binding); conditions: averaged IC50; MER 5 nM; 60-minute incubation at 22° C.; TR-FRET
T2 construct: His-tagged recombinant human MER cytoplasmic domain
T2 sequence (Q12866 527-999 limits assumed): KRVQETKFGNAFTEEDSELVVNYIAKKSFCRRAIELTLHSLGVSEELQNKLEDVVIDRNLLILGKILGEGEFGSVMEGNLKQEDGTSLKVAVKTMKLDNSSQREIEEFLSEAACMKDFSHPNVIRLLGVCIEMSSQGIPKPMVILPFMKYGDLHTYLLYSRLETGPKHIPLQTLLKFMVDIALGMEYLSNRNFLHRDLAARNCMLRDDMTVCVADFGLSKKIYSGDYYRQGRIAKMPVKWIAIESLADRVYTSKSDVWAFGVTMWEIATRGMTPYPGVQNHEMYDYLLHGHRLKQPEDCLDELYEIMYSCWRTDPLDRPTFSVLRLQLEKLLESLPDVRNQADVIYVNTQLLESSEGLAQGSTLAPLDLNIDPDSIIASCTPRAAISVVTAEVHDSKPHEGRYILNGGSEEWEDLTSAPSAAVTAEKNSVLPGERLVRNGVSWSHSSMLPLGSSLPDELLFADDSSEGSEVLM
Procedure: as §1, with “human MER” for “human AXL”, “domain (5 nM)” for “domain”, “mM MgCl 2,” for “mM MgCl2,”

[3] = target: T3, GST-tagged recombinant human TYRO3 kinase domain (Homo sapiens, UniProt Q06418); assay: TYRO3 Enzyme Assay (LanthaScreen Eu Kinase Binding); conditions: averaged IC50; TYRO3 5 nM; 60-minute incubation at 22° C.; TR-FRET
T3 construct: GST-tagged recombinant human TYRO3 kinase domain; purchased Carna PR7480A
T3 sequence (Q06418 518-790 limits assumed): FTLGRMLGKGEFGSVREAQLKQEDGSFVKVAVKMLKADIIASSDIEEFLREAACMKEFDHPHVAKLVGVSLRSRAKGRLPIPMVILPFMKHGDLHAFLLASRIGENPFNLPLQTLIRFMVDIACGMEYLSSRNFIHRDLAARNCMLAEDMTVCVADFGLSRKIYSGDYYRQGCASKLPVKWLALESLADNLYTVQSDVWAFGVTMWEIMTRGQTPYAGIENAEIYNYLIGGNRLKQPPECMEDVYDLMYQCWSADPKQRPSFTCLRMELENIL
Procedure: Compounds disclosed herein were screened for their ability to inhibit TYRO3 kinase using Invitrogen's LanthaScreenTM Eu Kinase Binding technology. GST-tagged recombinant human TYRO3 kinase domain from Carna (5 nM; Cat. No. P[…]) was incubated with 20 nM Alexa-Fluor® Tracer 236 (P[…]) and 2 nM Europium-anti-GST (Cat. No. A15116) along with test compound in a buffer consisting of 25 mM HEPES, pH 7.4, 10 mM MgCl2, 0.01% Triton X-100, and 2% DMSO. Compounds are typically prepared in a threefold serial dilution in DMSO and added to the assay to give the appropriate final concentration. After a 60-minute incubation at 22° C., the reaction was measured using a PerkinElmer EnVision multimode plate reader via TR-FRET dual wavelength detection, and the percent of control (POC) calculated using a ratiometric emission factor. […] The POC values were fit to a 4 parameter logistic curve and the IC50 value is point where the curve crosses 50 POC.

## COc1ccc2nccc(Oc3ccc(NC(=O)c4cn(C(C)C)cc(-c5ccc(F)cc5)c4=O)nc3)c2c1 [Example 40, 5-(4-fluorophenyl)-1-isopropyl-N-(5-((6-methoxyquinolin-4-yl)oxy)pyridin-2-yl)-4-oxo-1,4-dihydropyridine-3-carboxamide]
[1]
  IC50: 6 nM
[2]
  IC50: 19 nM
[3]
  IC50: 19 nM
